Experimental data from US7560458B2, “Triazolopyrimidine derivatives as glycogen synthase kinase 3 inhibitors” (Janssen Pharmaceutica, N.V., priority 2003, dated 2009).
Counter-ions that a name gives are not always drawn.

Legend:
[1] = target: GSK3β (Homo sapiens, UniProt P49841); assay: GSK3beta assay (SPA, biotinylated phosphorylated CREB peptide, ATP-P33); format: biochemical; conditions: −log IC50 (M); given as ranges (>8; 7-8; <7); read-out: pIC50 (GSK3beta) (converted)
Method in brief: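 Radiometric SPA at room temperature, pH 7.4 Tris/MgCl2/DTT/BSA/glycerol, with 5.7 ng/μl GSK3β, 5 μM biotinylated phospho-CREB peptide, 1 μM ATP plus 33P-ATP for 1 h. Stopped with streptavidin SPA beads, counted after overnight settling; % inhibition versus no-compound control, IC50 from dose-response curve.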

[2] = target: GSK3alpha (Homo sapiens, UniProt P49840); assay: GSK3alpha assay (same as the GSK3beta assay, GSK3alpha 0.25 ng/μl); format: biochemical; conditions: −log IC50 (M); given as ranges (>8; 7-8; <7); read-out: pIC50 (GSK3alpha) (converted)
Chain of GSK3alpha (P49840 whole entry, species assumed): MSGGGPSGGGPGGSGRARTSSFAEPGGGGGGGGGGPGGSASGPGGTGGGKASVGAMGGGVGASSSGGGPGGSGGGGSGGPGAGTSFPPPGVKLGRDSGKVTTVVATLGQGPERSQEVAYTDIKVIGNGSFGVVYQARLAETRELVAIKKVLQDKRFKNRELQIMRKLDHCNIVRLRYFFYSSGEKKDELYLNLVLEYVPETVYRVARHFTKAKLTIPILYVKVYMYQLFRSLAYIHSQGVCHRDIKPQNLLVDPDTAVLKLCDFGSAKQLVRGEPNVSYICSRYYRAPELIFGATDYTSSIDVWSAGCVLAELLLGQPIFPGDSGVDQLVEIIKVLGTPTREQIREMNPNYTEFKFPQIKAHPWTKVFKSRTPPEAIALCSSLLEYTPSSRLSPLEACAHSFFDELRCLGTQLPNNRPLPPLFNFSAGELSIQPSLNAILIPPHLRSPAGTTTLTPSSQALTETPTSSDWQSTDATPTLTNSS
Method in brief: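 GSK3α at 0.25 ng/μl phosphorylated 5 μM biotinylated phospho-CREB peptide with 1 μM ATP and 33P-ATP for 1 h at room temperature, in 25 mM Tris pH 7.4 with 10 mM MgCl2 and 1 mM DTT. Phosphorylated peptide was captured on streptavidin SPA beads and counted. IC50 was taken from dose-response curves.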

Chain of GSK3β (P49841 whole entry, species assumed): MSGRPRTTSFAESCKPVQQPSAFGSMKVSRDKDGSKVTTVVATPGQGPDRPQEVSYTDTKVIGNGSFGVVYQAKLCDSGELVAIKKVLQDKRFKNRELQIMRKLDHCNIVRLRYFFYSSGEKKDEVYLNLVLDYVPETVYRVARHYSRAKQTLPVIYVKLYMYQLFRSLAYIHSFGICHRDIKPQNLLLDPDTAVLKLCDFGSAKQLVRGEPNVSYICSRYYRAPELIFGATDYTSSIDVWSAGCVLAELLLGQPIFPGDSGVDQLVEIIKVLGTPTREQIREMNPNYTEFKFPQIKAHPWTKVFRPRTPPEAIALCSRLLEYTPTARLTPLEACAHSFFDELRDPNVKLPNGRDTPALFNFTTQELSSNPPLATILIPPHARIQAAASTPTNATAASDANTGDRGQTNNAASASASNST

SMILES	melting point	IC50 [1]	IC50 [2]
Nc1cccc(Nc2ncc3nnn(-c4cccc(F)c4)c3n2)c1 (as salt: HCl) [Compound 12]	224 °C	–	–
NS(=O)(=O)c1cccc(Nc2ncc3nnn(-c4cccc(F)c4)c3n2)c1 [Compound 1]	177 °C	< 1e-08 M	< 1e-08 M
CC(=O)c1cccc(Nc2ncc3nnn(-c4cccc(F)c4)c3n2)c1 [Compound 2]	220 to 224 °C	< 1e-08 M	< 1e-08 M
N#Cc1ccc(Nc2ncc3nnn(-c4cccc(F)c4)c3n2)cc1Cl [Compound 3]	> 260 °C	< 1e-08 M	< 1e-08 M
Fc1cccc(-n2nnc3cnc(Nc4cccc(Br)c4)nc32)c1 [Compound 7]	212 to 213 °C	< 1e-08 M	< 1e-08 M
CC(O)c1cccc(Nc2ncc3nnn(-c4cccc(F)c4)c3n2)c1 (stereo not shown) [Compound 27]	150 to 154 °C	< 1e-08 M	< 1e-08 M
COc1cccc(-n2nnc3cnc(Nc4cccc(C#N)c4)nc32)c1 [Compound 55]	228 to 231 °C	< 1e-08 M	< 1e-08 M
NS(=O)(=O)c1cccc(Nc2ncc3nnn(-c4cccc(-c5cnco5)c4)c3n2)c1 [Compound 57]	> 250 °C	< 1e-08 M	< 1e-08 M
C=CCN(c1cccc(Nc2ncc3nnn(-c4cccc(CO)c4)c3n2)c1)S(C)(=O)=O [Compound 69]	158 to 162 °C	< 1e-08 M	1e-08 M
N#CCc1cccc(-n2nnc3cnc(Nc4cccc(C(=O)NCCO)c4)nc32)c1 [Compound 275]	–	< 1e-08 M	< 1e-08 M
CC(O)c1cccc(Nc2ncc3nnn(-c4cccc(CC#N)c4)c3n2)c1 (stereo not shown) [Compound 278]	–	< 1e-08 M	< 1e-08 M
NCc1cccc(-n2nnc3cnc(Nc4ccc(F)cc4)nc32)c1 [Compound 279]	–	1e-08 to 1e-07 M	1e-08 to 1e-07 M
COCCOCc1cccc(-n2nnc3cnc(Nc4ccc(C(N)=O)cc4)nc32)c1 [Compound 286]	–	< 1e-08 M	< 1e-08 M
COCCOCc1cccc(-n2nnc3cnc(Nc4ccc(CCO)cc4)nc32)c1 [Compound 289]	–	< 1e-08 M	< 1e-08 M
OCCc1ccc(-n2nnc3cnc(Nc4ccc(F)cc4)nc32)cc1 [Compound 291]	–	1e-08 to 1e-07 M	< 1e-08 M
OCCc1ccc(Nc2ncc3nnn(-c4ccc(CCO)cc4)c3n2)cc1 [Compound 293]	–	> 1e-07 M	< 1e-08 M
CC(C)(C)OC(=O)NCc1ccc(Nc2ncc3nnn(-c4cccc(F)c4)c3n2)cc1 [Compound 294]	–	< 1e-08 M	< 1e-08 M
NCc1ccc(Nc2ncc3nnn(-c4cccc(F)c4)c3n2)cc1 [Compound 295]	–	1e-08 M	< 1e-08 M
COCCOc1cccc(-n2nnc3cnc(Nc4ccc(F)cc4)nc32)c1 [Compound 301]	–	1e-08 to 1e-07 M	< 1e-08 M
COCCOc1cccc(-n2nnc3cnc(Nc4ccc(CNC(=O)OC(C)(C)C)cc4)nc32)c1 [Compound 302]	–	1e-08 to 1e-07 M	< 1e-08 M
COCCOc1cccc(-n2nnc3cnc(Nc4cccc(CNC(=O)OC(C)(C)C)c4)nc32)c1 [Compound 303]	–	1e-08 to 1e-07 M	< 1e-08 M

SMILES	melting point	IC50 [1]	IC50 [2]
COCc1cccc(-n2nnc3cnc(Nc4ccc(C(=O)O)c(OC)c4)nc32)c1 [Compound 304]	–	< 1e-08 M	< 1e-08 M
Fc1cccc(-n2nnc3cnc(Nc4ccc(CNCC(F)(F)F)cc4)nc32)c1 [Compound 306]	–	< 1e-08 M	< 1e-08 M
CN(C)C(=O)c1ccc(Nc2ncc3nnn(-c4cccc(F)c4)c3n2)cc1 [Compound 309]	–	< 1e-08 M	< 1e-08 M
NCc1ccc(Nc2ncc3nnn(-c4cccc(CCO)c4)c3n2)cc1 [Compound 310]	–	< 1e-08 M	< 1e-08 M
N#CCc1cccc(-n2nnc3cnc(Nc4ccc(CNCC(F)(F)F)cc4)nc32)c1 [Compound 311]	–	< 1e-08 M	< 1e-08 M
COCCOc1cccc(-n2nnc3cnc(Nc4ccc(CNCC(F)(F)F)cc4)nc32)c1 [Compound 312]	–	1e-08 to 1e-07 M	< 1e-08 M
N#CCc1cccc(-n2nnc3cnc(Nc4ccc(CN)cc4)nc32)c1 [Compound 313]	–	< 1e-08 M	< 1e-08 M
COCCOCc1cccc(-n2nnc3cnc(Nc4ccc(CN)cc4)nc32)c1 [Compound 314]	–	1e-08 to 1e-07 M	1e-08 to 1e-07 M
COCc1cccc(-n2nnc3cnc(Nc4ccc(CN)cc4)nc32)c1 [Compound 315]	–	< 1e-08 M	< 1e-08 M
N#CCc1cccc(-n2nnc3cnc(Nc4ccc(CCN)cc4)nc32)c1 [Compound 317]	–	< 1e-08 M	< 1e-08 M
COCCOCc1cccc(-n2nnc3cnc(Nc4ccc(CCN)cc4)nc32)c1 [Compound 318]	–	1e-08 to 1e-07 M	1e-08 to 1e-07 M
COCCOc1cccc(-n2nnc3cnc(Nc4ccc(CCN)cc4)nc32)c1 [Compound 319]	–	1e-08 to 1e-07 M	1e-08 to 1e-07 M
CNC(=O)c1ccc(Nc2ncc3nnn(-c4cccc(OCCOC)c4)c3n2)cc1 [Compound 325]	–	1e-08 to 1e-07 M	< 1e-08 M
CNC(=O)c1ccc(Nc2ncc3nnn(-c4cccc(COCCOC)c4)c3n2)cc1 [Compound 327]	–	< 1e-08 M	< 1e-08 M
COCCOCc1cccc(-n2nnc3cnc(Nc4ccc(C(=O)N(C)C)cc4)nc32)c1 [Compound 328]	–	< 1e-08 M	< 1e-08 M
CNC(=O)c1ccc(Nc2ncc3nnn(-c4cccc(CCO)c4)c3n2)cc1 [Compound 329]	–	< 1e-08 M	< 1e-08 M
CN(C)C(=O)c1ccc(Nc2ncc3nnn(-c4cccc(CCO)c4)c3n2)cc1 [Compound 330]	–	< 1e-08 M	< 1e-08 M
CN(C)C(=O)c1ccc(Nc2ncc3nnn(-c4cccc(CC#N)c4)c3n2)cc1 [Compound 332]	–	< 1e-08 M	< 1e-08 M
COCCOc1cccc(-n2nnc3cnc(Nc4ccc(Cl)cc4)nc32)c1 [Compound 335]	–	1e-08 to 1e-07 M	1e-08 to 1e-07 M
COCc1cccc(-n2nnc3cnc(Nc4ccc(Cl)cc4)nc32)c1 [Compound 338]	–	< 1e-08 M	< 1e-08 M

More lines, now with the values ahead:

melting point	IC50 [1]	IC50 [2]	SMILES
228 to 232 °C	< 1e-08 M	< 1e-08 M	COc1cc(OC)cc(-n2nnc3cnc(Nc4cccc(C#N)c4)nc32)c1 [Compound 6]
228 to 230 °C	< 1e-08 M	< 1e-08 M	N#Cc1cccc(Nc2ncc3nnn(-c4cccc(F)c4)c3n2)c1 [Compound 8]
214 to 218.1 °C	< 1e-08 M	< 1e-08 M	CCOC(=O)/C=C/c1cccc(Nc2ncc3nnn(-c4cccc(F)c4)c3n2)c1 [Compound 9]
> 250 °C	< 1e-08 M	< 1e-08 M	O=C(O)/C=C/c1cccc(Nc2ncc3nnn(-c4cccc(F)c4)c3n2)c1 [Compound 10]
142 to 146 °C	< 1e-08 M	< 1e-08 M	CC(C)Oc1cccc(Nc2ncc3nnn(-c4cccc(F)c4)c3n2)c1 [Compound 28]
> 260 °C	–	–	CC(=O)NCc1cccc(Nc2ncc3nnn(-c4cccc(C(=O)O)c4)c3n2)c1 [Compound 76]
–	< 1e-08 M	< 1e-08 M	N#CCc1cccc(-n2nnc3cnc(Nc4ccc(C(N)=O)cc4)nc32)c1 [Compound 274]
–	< 1e-08 M	< 1e-08 M	N#CCc1cccc(-n2nnc3cnc(Nc4cccc(CCO)c4)nc32)c1 [Compound 276]
–	< 1e-08 M	< 1e-08 M	N#CCc1cccc(-n2nnc3cnc(Nc4cccc(CO)c4)nc32)c1 [Compound 277]
–	< 1e-08 M	< 1e-08 M	N#Cc1ccc(Nc2ncc3nnn(-c4cccc(CCO)c4)c3n2)cc1 [Compound 285]
–	1e-08 to 1e-07 M	1e-08 to 1e-07 M	CN(C)CCOc1ccc(Nc2ncc3nnn(-c4cccc(F)c4)c3n2)cc1 [Compound 296]
–	1e-08 to 1e-07 M	< 1e-08 M	COCCOc1cccc(-n2nnc3cnc(Nc4ccc(CN)cc4)nc32)c1 [Compound 305]
–	< 1e-08 M	< 1e-08 M	NC(=O)c1ccc(Nc2ncc3nnn(-c4cccc(F)c4)c3n2)cc1 [Compound 307]
–	< 1e-08 M	< 1e-08 M	CNC(=O)c1ccc(Nc2ncc3nnn(-c4cccc(F)c4)c3n2)cc1 [Compound 308]
–	< 1e-08 M	< 1e-08 M	NCCc1ccc(Nc2ncc3nnn(-c4cccc(CCO)c4)c3n2)cc1 [Compound 316]
–	1e-08 to 1e-07 M	1e-08 to 1e-07 M	COCc1cccc(-n2nnc3cnc(Nc4ccc(CCN)cc4)nc32)c1 [Compound 320]
–	1e-08 to 1e-07 M	1e-08 to 1e-07 M	NCCc1ccc(Nc2ncc3nnn(-c4cccc(F)c4)c3n2)cc1 [Compound 321]
–	1e-08 to 1e-07 M	1e-08 to 1e-07 M	COCCOc1cccc(-n2nnc3cnc(Nc4ccc(C(=O)N(C)C)cc4)nc32)c1 [Compound 326]
–	1e-08 to 1e-07 M	1e-08 to 1e-07 M	CNC(=O)c1ccc(Nc2ncc3nnn(-c4cccc(CC#N)c4)c3n2)cc1 [Compound 331]
–	< 1e-08 M	< 1e-08 M	CNC(=O)c1ccc(Nc2ncc3nnn(-c4cccc(COC)c4)c3n2)cc1 [Compound 333]
–	< 1e-08 M	< 1e-08 M	COCc1cccc(-n2nnc3cnc(Nc4ccc(C(=O)N(C)C)cc4)nc32)c1 [Compound 334]
–	< 1e-08 M	< 1e-08 M	COCCOCc1cccc(-n2nnc3cnc(Nc4ccc(Cl)cc4)nc32)c1 [Compound 336]
–	< 1e-08 M	< 1e-08 M	N#CCc1cccc(-n2nnc3cnc(Nc4ccc(Cl)cc4)nc32)c1 [Compound 337]
